Reference: US10251394B2, “Molecules having pesticidal utility, and intermediates, compositions, and processes, related thereto” (Dow AgroSciences LLC, priority 2016, dated 2019)

Columns and labels:
Format in all cases: in vivo
[1] = system: Beet Armyworm (Spodoptera exigua); experiment: Bioassay on Beet Armyworm (BAW), 128-well diet tray assay; conditions: Beet Armyworm, Table ABC, read-out: BAW rating
Procedure, shortened: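 Second-instar larvae (one to five per well) placed on artificial diet surface-treated with 50 μg/cm^2 test molecule in 90:10 acetone-water, dried, eight wells per molecule. Held at 25° C, 14:10 light-dark, five to seven days; percent mortality recorded per well and averaged across the eight wells.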

[2] = system: Yellow Fever Mosquito (Aedes aegypti); experiment: Bioassay on Yellow Fever Mosquito (YFM) larvae, 96-well plate; conditions: Table ABC
Protocol: Example C: Bioassays on Yellow Fever Mosquito (Aedes Aegypti, AEDSAE) (“YFM”)
Certain molecules disclosed in this document were tested against YFM using procedures described in the following paragraph. In the reporting of the results, the “GPA & YFM Rating Table” was used (See Table Section).
Master plates containing 400 μg of a molecule dissolved in 100 μL of dimethyl sulfoxide (DMSO) (equivalent to a 4000 ppm solution) are used. A master plate of assembled molecules contains 15 μL per well. To this plate, 135 μL of a 90:10 water:acetone mixture is added to each well. A robot (Biomek® NXP Laboratory Automation Workstation) is programmed to dispense 15 μL aspirations from the master plate into an empty 96-well shallow plate (“daughter” plate). There are 6 reps (“daughter” plates) created per master. The created daughter plates are then immediately infested with YFM larvae.
The day before plates are to be treated, mosquito eggs are placed in Millipore water containing liver powder to begin hatching (4 g. into 400 mL). After the daughter plates are created using the robot, they are infested with 220 μL of the liver powder/larval mosquito mixture (about 1 day-old larvae). After plates are infested with mosquito larvae, a non-evaporative lid is used to cover the plate to reduce drying. Plates are held at room temperature for 3 days prior to grading. After 3 days, each well is observed and scored based on mortality. The results are indicated in the table entitled “Table ABC: Biological Results” (See Table Section).

[3] = system: Cabbage Looper (Trichoplusia ni); experiment: Bioassay on Cabbage Looper (CL), 128-well diet tray assay; conditions: Cabbage Looper, Table ABC, read-out: CL rating
Procedure, shortened: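 Second-instar larvae, one to five per well, placed on artificial diet surface-treated with 50 μg/cm^2 compound in acetone-water, eight wells per compound. Held 5-7 days at 25° C, 14:10 light-dark; percent mortality per well averaged across wells.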

SMILES	pest or weed control at 50 µg/cm2 [1] [%]	YFM rating [2]	pest or weed control at 50 µg/cm2 [3] [%]
C[C@@H](NC(=O)c1ccc(/C(F)=C/C(c2cc(Br)cc(Br)c2)C(F)(F)F)cc1C(F)(F)F)C(=O)NCC(F)(F)F (stereo partly drawn) [F33, 4-((Z)-3-(3,5-Dibromophenyl)-1,4,4,4-tetrafluorobut-1-en-1-yl)-N—((R)-1-oxo-1-((2,2,2-trifluoroethyl)amino)propan-2-yl)-2-(trifluoromethyl)benzamide]	50 to 100	A (80-100)	50 to 100
O=C(NC1(C(=O)NCC(F)(F)F)CC1)c1ccc(/C(F)=C/C(c2cc(Br)cc(Br)c2)C(F)(F)F)cc1C(F)(F)F (stereo not shown) [F34, (Z)-4-(3-(3,5-dibromophenyl)-1,4,4,4-tetrafluorobut-1-en-1-yl)-N-(1-((2,2,2-trifluoroethyl)carbamoyl)cyclopropyl)-2-(trifluoromethyl)benzamide]	50 to 100	A (80-100)	50 to 100
O=C(CNC(=O)c1ccc(/C(F)=C/C(c2cc(Br)cc(Br)c2)C(F)(F)F)cc1C(F)(F)F)NCC(F)(F)F (stereo not shown) [F35, (Z)-4-(3-(3,5-Dibromophenyl)-1,4,4,4-tetrafluorobut-1-en-1-yl)-N-(2-oxo-2-((2,2,2-trifluoroethyl)amino)ethyl)-2-(trifluoromethyl)benzamide]	50 to 100	A (80-100)	50 to 100
C[C@@H](NC(=O)c1ccc(/C(F)=C/C(c2cc(Cl)c(F)c(Cl)c2)C(F)(F)F)cc1C(F)(F)F)C(=O)NCC(F)(F)F (stereo partly drawn) [F36, 4-((Z)-3-(3,5-Dichloro-4-fluorophenyl)-1,4,4,4-tetrafluorobut-1-en-1-yl)-N—((R)-1-oxo-1-((2,2,2-trifluoroethyl)amino)propan-2-yl)-2-(trifluoromethyl)benzamide]	50 to 100	A (80-100)	50 to 100
O=C(NC1(C(=O)NCC(F)(F)F)CC1)c1ccc(/C(F)=C/C(c2cc(Cl)c(F)c(Cl)c2)C(F)(F)F)cc1C(F)(F)F (stereo not shown) [F37, (Z)-4-(3-(3,5-Dichloro-4-fluorophenyl)-1,4,4,4-tetrafluorobut-1-en-1-yl)-N-(1-((2,2,2-trifluoroethyl)carbamoyl)cyclopropyl)-2-(trifluoromethyl)benzamide]	50 to 100	A (80-100)	50 to 100
O=C(CNC(=O)c1ccc(/C(F)=C/C(c2cc(Cl)c(F)c(Cl)c2)C(F)(F)F)cc1C(F)(F)F)NCC(F)(F)F (stereo not shown) [F38, (Z)-4-(3-(3,5-Dichloro-4-fluorophenyl)-1,4,4,4-tetrafluorobut-1-en-1-yl)-N-(2-oxo-2-((2,2,2-trifluoroethyl)amino)ethyl)-2-(trifluoromethyl)benzamide]	50 to 100	A (80-100)	50 to 100
O=C(NC1(C(=O)NCC(F)(F)F)CC1)c1ccc(/C(F)=C/C(c2cc(Cl)cc(Cl)c2)C(F)(F)F)cc1C(F)(F)F (stereo not shown) [F39, (Z)-4-(3-(3,5-Dichlorophenyl)-1,4,4,4-tetrafluorobut-1-en-1-yl)-N-(1-((2,2,2-trifluoroethyl)carbamoyl)cyclopropyl)-2-(trifluoromethyl)benzamide]	50 to 100	A (80-100)	50 to 100
O=C(CNC(=O)c1ccc(/C(F)=C/C(c2cc(Cl)cc(Cl)c2)C(F)(F)F)cc1C(F)(F)F)NCC(F)(F)F (stereo not shown) [F40, (Z)-4-(3-(3,5-Dichlorophenyl)-1,4,4,4-tetrafluorobut-1-en-1-yl)-N-(2-oxo-2-((2,2,2-trifluoroethyl)amino)ethyl)-2-(trifluoromethyl)benzamide]	50 to 100	A (80-100)	50 to 100
O=C(NC1(C(=O)NCC(F)(F)F)CC1)c1ccc(/C(F)=C/C(c2ccc(Cl)c(Cl)c2)C(F)(F)F)cc1C(F)(F)F (stereo not shown) [F41, (Z)-4-(3-(3,4-Dichlorophenyl)-1,4,4,4-tetrafluorobut-1-en-1-yl)-N-(1-((2,2,2-trifluoroethyl)carbamoyl)cyclopropyl)-2-(trifluoromethyl)benzamide]	50 to 100	A (80-100)	50 to 100
C[C@@H](NC(=O)c1ccc(/C(F)=C/C(c2ccc(Cl)c(Cl)c2)C(F)(F)F)cc1C(F)(F)F)C(=O)NCC(F)(F)F (stereo partly drawn) [F42, 4-((Z)-3-(3,4-Dichlorophenyl)-1,4,4,4-tetrafluorobut-1-en-1-yl)-N—((R)-1-oxo-1-((2,2,2-trifluoroethyl)amino)propan-2-yl)-2-(trifluoromethyl)benzamide]	50 to 100	A (80-100)	50 to 100
O=C(CNC(=O)c1ccc(/C(F)=C/C(c2ccc(Cl)c(Cl)c2)C(F)(F)F)cc1C(F)(F)F)NCC(F)(F)F (stereo not shown) [F43, (Z)-4-(3-(3,4-Dichlorophenyl)-1,4,4,4-tetrafluorobut-1-en-1-yl)-N-(2-oxo-2-((2,2,2-trifluoroethyl)amino)ethyl)-2-(trifluoromethyl)benzamide]	50 to 100	A (80-100)	50 to 100
C[C@@H](NC(=O)c1ccc(/C(F)=C/C(c2cc(Br)c(Cl)c(Br)c2)C(F)(F)F)cc1C(F)(F)F)C(=O)NCC(F)(F)F (stereo partly drawn) [F44, 4-((Z)-3-(3,5-Dibromo-4-chlorophenyl)-1,4,4,4-tetrafluorobut-1-en-1-yl)-N—((R)-1-oxo-1-((2,2,2-trifluoroethyl)amino)propan-2-yl)-2-(trifluoromethyl)benzamide]	50 to 100	A (80-100)	50 to 100
CN(CC(F)(F)F)C(=O)C1(NC(=O)c2ccc(/C(F)=C/C(c3cc(Cl)cc(Cl)c3)C(F)(F)F)cc2C(F)(F)F)CC1 (stereo not shown) [F133, (Z)-4-(3-(3,5-Dichlorophenyl)-1,4,4,4-tetrafluorobut-1-en-1-yl)-N-(1-(methyl(2,2,2-trifluoroethyl)carbamoyl)cyclopropyl)-2-(trifluoromethyl)benzamide]		B (More than 0-Less than 80)	
Cc1cc(C(/C=C(\F)c2ccc(C(=O)NC3(C(=O)N(C)CC(F)(F)F)CC3)c(C(F)(F)F)c2)C(F)(F)F)cc(C)c1Cl (stereo not shown) [F134, (Z)-4-(3-(4-Chloro-3,5-dimethylphenyl)-1,4,4,4-tetrafluorobut-1-en-1-yl)-N-(1-(methyl(2,2,2-trifluoroethyl)carbamoyl)cyclopropyl)-2-(trifluoromethyl)benzamide]		B (More than 0-Less than 80)	
CN(CC(F)(F)F)C(=O)C1(NC(=O)c2ccc(/C(F)=C/C(c3ccc(Cl)c(Cl)c3)C(F)(F)F)cc2C(F)(F)F)CC1 (stereo not shown) [F135, (Z)-4-(3-(3,4-Dichlorophenyl)-1,4,4,4-tetrafluorobut-1-en-1-yl)-N-(1-(methyl(2,2,2-trifluoroethyl)carbamoyl)cyclopropyl)-2-(trifluoromethyl)benzamide]		B (More than 0-Less than 80)	
C[C@@H](NC(=O)c1ccc(/C(F)=C/C(c2cc(Cl)cc(Cl)c2)C(F)(F)F)cc1C(F)(F)F)C(=O)NCC(F)(F)F (stereo partly drawn) [F144, 4-((Z)-3-(3,5-Dichlorophenyl)-1,4,4,4-tetrafluorobut-1-en-1-yl)-N—((R)-1-oxo-1-((2,2,2-trifluoroethyl)amino)propan-2-yl)-2-(trifluoromethyl)benzamide]		A (80-100)	
F/C(=C\C(c1cc(Cl)c(Cl)c(Cl)c1)C(F)(F)F)c1ccc(C(=S)NCC(=S)NCC(F)(F)F)c(C(F)(F)F)c1 (stereo not shown) [PF88, (Z)-4-(1,4,4,4-tetrafluoro-3-(3,4,5-trichlorophenyl)but-1-en-1-yl)-N-(2-thioxo-2-((2,2,2-trifluoroethyl)amino)ethyl)-2-(trifluoromethyl)benzothioamide]	50 to 100		50 to 100
C[C@@H](NC(=O)c1ccc(/C(F)=C/C(c2cc(Cl)c(Cl)c(Cl)c2)C(F)(F)F)cc1C(F)(F)F)C(=S)NCC(F)(F)F (stereo partly drawn) [PF96, 4-((2)-1,4,4,4-Tetrafluoro-3-(3,4,5-trichlorophenyl)but-1-en-1-yl)-N—((R)-1-thioxo-1-((2,2,2-trifluoroethyl)amino)propan-2-yl)-2-(trifluoromethyl)benzamide]	50 to 100		50 to 100
O=C(NC1(C(=S)NCC(F)(F)F)CC1)c1ccc(/C(F)=C/C(c2cc(Cl)c(Cl)c(Cl)c2)C(F)(F)F)cc1C(F)(F)F (stereo not shown) [PF98, (Z)-4-(1,4,4,4-Tetrafluoro-3-(3,4,5-trichlorophenyl)but-1-en-1-yl)-N-(1-((2,2,2-trifluoroethyl)carbamothioyl)cyclopropyl)-2-(trifluoromethyl)benzamide]	50 to 100		50 to 100
